# According to ChEMBL document CHEMBL3045473, “Affinity of 3-benzylidene- and 3-cinnamylidenemyosmine analogues for Periplaneta americana nicotinic acetylcholine receptors” (J Pestic Sci, 2006):
# Legend:
# [1] = biological target: T1, Nicotinic acetylcholine receptor alpha8 subunit (Periplaneta americana, UniProt H6TY12); assay: Displacement of [3H]epibatidine from nAChR in Periplaneta americana (American cockroach) nerve cords membranes incubated at 24 degC for 2 hr by liquid scintillation counting method
# T1 sequence (H6TY12 whole entry): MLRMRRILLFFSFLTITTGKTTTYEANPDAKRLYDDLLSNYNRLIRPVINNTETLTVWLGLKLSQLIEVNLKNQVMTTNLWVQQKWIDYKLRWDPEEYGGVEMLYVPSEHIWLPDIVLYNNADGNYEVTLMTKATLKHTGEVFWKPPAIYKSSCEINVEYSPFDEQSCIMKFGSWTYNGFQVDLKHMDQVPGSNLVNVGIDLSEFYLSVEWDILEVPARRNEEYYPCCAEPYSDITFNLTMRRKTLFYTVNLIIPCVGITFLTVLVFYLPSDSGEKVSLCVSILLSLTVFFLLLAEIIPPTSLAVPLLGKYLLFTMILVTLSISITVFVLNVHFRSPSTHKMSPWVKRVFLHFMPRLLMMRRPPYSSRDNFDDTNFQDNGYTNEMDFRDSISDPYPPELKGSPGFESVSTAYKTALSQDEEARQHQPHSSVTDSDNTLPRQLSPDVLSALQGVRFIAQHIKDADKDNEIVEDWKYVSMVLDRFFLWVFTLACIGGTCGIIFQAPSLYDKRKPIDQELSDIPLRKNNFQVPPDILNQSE
# [2] = biological target: T2, Nicotinic acetylcholine receptor alpha8 subunit (Periplaneta americana) (UniProt H6TY12); assay: Displacement of [3H]epibatidine from nAChR in Periplaneta americana (American cockroach) nerve cords membranes at 10 uM incubated at 24 degC for 2 hr by liquid scintillation counting method
# T2 sequence (whole entry): T1 sequence (H6TY12 whole entry)
Structure (SMILES),IC50 [1] [µM],inhibition [2] [%]
COc1cccc(/C=C2\CCN=C2c2cccnc2)c1,> 10,23.6
N#Cc1ccc(/C=C2\CCN=C2c2cccnc2)cc1,> 10,31.4
COc1ccc(/C=C2\CCN=C2c2cccnc2)c(OC)c1,4.55,
c1cncc(C2=NCCC2)c1 [MYOSMINE],> 10,27.3
COc1ccc(/C=C2\CCN=C2c2cccnc2)c(O)c1,3.89,
Oc1ccc(/C=C2\CCN=C2c2cccnc2)c(O)c1,0.12,
Clc1ccc(/C=C2\CCN=C2c2cccnc2)cc1,> 10,21.5
Oc1cccc(/C=C2\CCN=C2c2cccnc2)c1,> 10,32.1
C(=C\c1ccccc1)/C=C1\CCN=C1c1cccnc1 [3-CINNAMYLIDENEMYOSMINE],3.52,
COc1ccc(/C=C2\CCN=C2c2cccnc2)cc1,> 10,31.4
CN(C)c1ccc(/C=C/C=C2\CCN=C2c2cccnc2)cc1,2.07,
C(=C1/CCCN=C1c1cccnc1)/c1ccccc1 [3-BENZYLIDENEANABASEINE],0.035,
COc1ccccc1/C=C1\CCN=C1c1cccnc1,> 10,49.5
Fc1ccc(/C=C2\CCN=C2c2cccnc2)cc1,> 10,22.3
Oc1ccc(/C=C2\CCN=C2c2cccnc2)cc1,0.31,
CN(C)c1ccc(/C=C2\CCN=C2c2cccnc2)cc1,5.49,
Oc1ccccc1/C=C1\CCN=C1c1cccnc1,6.9,
Clc1ccc(C2=NCCC/C2=C\c2ccccc2)cn1,0.0212,
C(=C1/CCN=C1c1cccnc1)/c1ccccc1,> 10,41.3
